Five compounds from DBAASP can be followed below.

In brackets after ≈: the same amount, converted by molar mass.

Some test systems named below: Bacillus cereus; Pseudomonas aeruginosa; Shigella dysenteriae; Escherichia coli K-12.
Experiment in all cases: ≥ marks a high value that may be exact or a test limit, other limits are often not marked, values filed in µg/mL are converted to µM
Test [1] has as its system Bacillus subtilis ATCC 6633.
For test [2], the system named is Candida albicans ATCC 2002.
Test [3] deals with Escherichia coli ATCC 25922.
The subject of test [4] is Staphylococcus aureus ATCC 2592.
Test [5] deals with Staphylococcus aureus ATCC 6538.
The subject of test [6] is Pseudomonas aeruginosa ATCC 27853.

As for `CC[C@H](C)[C@H](NC(=O)CN)C(=O)N[C@@H](CC(C)C)C(=O)N[C@@H](CC(=O)O)C(=O)N[C@@H](C)C(=O)N[C@H](C(=O)N[C@@H](CCCCN)C(=O)N[C@@H](C)C(=O)N[C@@H](Cc1ccccc1)C(=O)N[C@@H](C)C(=O)N[C@@H](CC(N)=O)C(=O)N[C@@H](C)C(=O)N[C@@H](CC(C)C)C(=O)NCC(N)=O)[C@@H](C)CC` [GILDAIKAFANALG], the MIC in [1] is 4 µM (≈ 5.5 µg/mL); against Bacillus cereus it was 8.01 µM (≈ 11 µg/mL); in test [2] it was not below 48 µM; in the test on Pseudomonas aeruginosa, 4 µM (≈ 5.5 µg/mL); in [3], 32 µM (≈ 44 µg/mL); in test [4], 4 µM (≈ 5.5 µg/mL). In addition, the MIC in the test on Shigella dysenteriae was determined as 2 µM (≈ 2.75 µg/mL).

As for `CC[C@H](C)[C@H](NC(=O)CNC(=O)[C@H](CO)NC(=O)[C@H](CC(C)C)NC(=O)[C@H](CC(C)C)NC(=O)CN)C(=O)N[C@@H](CC(C)C)C(=O)NCC(=O)N[C@@H](C)C(=O)NCC(=O)N[C@@H](CCCCN)C(=O)N[C@@H](Cc1cnc[nH]1)C(=O)N[C@H](C(=O)N[C@H](C(=O)N[C@H]1CSSC[C@@H](C(=O)N[C@@H](C)C(=O)N[C@@H](CCCCN)C(=O)N[C@@H](C)C(=O)O)NC(=O)CNC(=O)[C@H]([C@@H](C)O)NC(=O)[C@H](CC(C)C)NC(=O)CNC1=O)C(C)C)[C@@H](C)CC` [GLLSGILGAGKHIVCGLTGCAKA], the MIC is 8.76 µM (≈ 18.7 µg/mL) in test [2], more than 46.7 µM in [3], 4.38 µM (≈ 9.37 µg/mL) in [4] and 17.5 µM (≈ 37.5 µg/mL) in the test with Shigella dysenteriae.

As for `CC(C)C[C@H](NC(=O)[C@H](CCC(N)=O)NC(=O)[C@H](CCCCN)NC(=O)[C@H](Cc1ccc(O)cc1)NC(=O)[C@@H]1CCCN1C(=O)[C@H](CCC(N)=O)NC(=O)[C@H](C)NC(=O)[C@H](CO)NC(=O)CN)C(=O)N[C@@H](Cc1cnc[nH]1)C(=O)N[C@@H](CCCCN)C(=O)N[C@H](C(=O)N[C@H](C(=O)N[C@@H](CC(N)=O)C(=O)N[C@@H](Cc1c[nH]c2ccccc12)C(=O)N[C@@H](CC(=O)O)C(=O)N1CCC[C@H]1C(=O)N[C@@H](Cc1ccc(O)cc1)C(=O)NCC(=O)O)C(C)C)C(C)C` [GSAQPYKQLHKVVNWDPYG], the minimum inhibitory concentration (MIC) in test [2] was 13.7 µM (≈ 30 µg/mL); in test [3], more than 45.7 µM; in test [4] it was 6.86 µM (≈ 15 µg/mL); against Shigella dysenteriae, 27.4 µM (≈ 60 µg/mL).

`CC[C@H](C)[C@H](NC(=O)[C@H](CCSC)NC(=O)[C@H](CCCCN)NC(=O)[C@H](CCC(=O)O)NC(=O)[C@H](C)NC(=O)[C@H](CCCCN)NC(=O)[C@H](CCCCN)NC(=O)[C@H](Cc1ccccc1)NC(=O)[C@@H](NC(=O)[C@H](CCCCN)NC(=O)[C@H](Cc1c[nH]c2ccccc12)NC(=O)[C@@H](N)CCCCN)C(C)C)C(=O)N[C@@H](CCCN=C(N)N)C(=O)N[C@@H](CC(N)=O)C(=O)N[C@H](C(=O)N[C@@H](CCCN=C(N)N)C(=O)N[C@@H](CC(N)=O)C(=O)N[C@@H](CCCCN)C(=O)N[C@H](C(=O)N[C@H](C(=O)N[C@@H](CCCCN)C(N)=O)C(C)C)[C@@H](C)CC)[C@@H](C)CC` [KWKVFKKAEKMIRNIRNKIVK]: the minimum inhibitory concentration (MIC) in test [5] was more than 25 µM; with Escherichia coli K-12, 3 µM (≈ 7.97 µg/mL); in test [6] it was more than 6 µM.

In turn, `CC[C@H](C)[C@H](NC(=O)[C@H](CCCN=C(N)N)NC(=O)[C@H](CCC(N)=O)NC(=O)[C@@H](NC(=O)[C@@H](NC(=O)[C@H](CCCN=C(N)N)NC(=O)[C@@H](N)CCCN=C(N)N)[C@@H](C)CC)C(C)C)C(=O)N[C@@H](CCCN=C(N)N)C(=O)N[C@@H](CC(=O)O)C(=O)N[C@@H](Cc1ccccc1)C(=O)N[C@@H](CC(C)C)C(=O)N[C@@H](CCCN=C(N)N)C(N)=O` [RRIVQRIRDFLR] showed an MIC against Escherichia coli K-12 of 30 µM (≈ 48.8 µg/mL). This lies in the double-digit micromolar range.

One may read the MIC as the lowest concentration found to suppress growth. Read a high MIC as a need for much substance.
